Results from publication PMC6856681, “Accumulation of Dietary S‐Methyl Cysteine Sulfoxide in Human Prostate Tissue” (Molecular Nutrition & Food Research, 2019).
Where two headings read alike, the source gives them in different places. Each block holds one compound with its values, some of them ahead of it.

How the values were obtained:
[1] = SAP study: metabolites in prostate biopsy tissue, peri-prostatic adipose tissue and urine after 4 weeks of broccoli soup supplementation vs control; assay type: in vivo, human
From the text: The SAP study (Figure 2) was a two-arm, parallel un-blinded, dietary-supplementation study, delivering a short, high-dose broccoli soup supplement to a habitual diet to men in the pre-biopsy window before a trans-perineal prostate biopsy (TPB). The primary aim was to determine whether supplementation of a diet with a broccoli soup would enhance the levels of […] and other broccoli-derived metabolites in the prostate of men scheduled for prostate biopsy. Eighteen men were randomized to either continue their normal diet (non-supplementation controls) or receive three portions of a glucoraphanin-rich broccoli soup (300 g) per week for a minimum of 4 weeks manufactured from a broccoli cultivar heterozygous for a Myb28^villosa allele, as previously described.19 On the study day, samples of whole blood, urine (following a digital rectal prostatic massage), prostate, and peri-prostatic adipose tissue were collected. The protocol was approved by the Human Research Governance Committee ([…] 01/2016) at Quadram Institute Bioscience and given full ethical approval by The East of England - Cambridge East Research Ethics Committee (ref: 16/EE/0054). The trial was registered on a publicly accessible database (ClinicalTrials.gov, NCT02821728). A sample of whole blood for genotyping was obtained via the intravenous cannula inserted for use by the anesthetist, thus avoiding additional venipuncture. After prostatic massage, a first-pass urine sample was collected. TPB was performed under general or spinal anesthesia with appropriate antibiotic prophylaxis. Once anesthetized, the patient was positioned supine with their legs elevated in stirrups. A template grid was placed on the skin of the perineum and the prostate visualized by trans-rectal ultrasound scan. […] For the SAP study, eight biopsy cores of prostate tissue were taken from a region of the prostate not known or suspected to contain cancer. Five of these were snap frozen for metabolite analyses, two in RNAlater, and one in methanol. Two additional cores were taken from peri-prostatic adipose tissue and snap frozen. Snap-frozen tissue cores were individually weighed on a high-sensitivity balance and transferred to screw-top tubes. Two hundred microliters of cold Milli- Q® water and […] of autoclaved, acid-washed 710 to 1180 μm glass beads were added to each tube. […] The samples were then placed on a revolving shaker for 15 min at 4 °C. The tubes were centrifuged at 17 000 × g for 10 min at 4 °C and 50 μL of supernatant transferred to a new Eppendorf. 10 μL of 50% trichloroacetic acid (TCA) were added to each sample to precipitate proteins. The centrifugation step was repeated and 50 μL of supernatant transferred to HPLC insert vials for analysis by LC-MS/MS. […] Stock solutions of 1 mg mL^-1 sulfate (Sigma) and SMCSO (LKT laboratories Inc.) were generated by dilution of weighed powder into Milli-Q water. Serial fivefold dilutions were performed in the relevant matrix to produce 6-point calibration curves from 10 to 0 μg mL^-1 on the day of analysis. Sulfate was quantified using an Agilent 6490 triple-quad LC-MS mass spectrometer (Agilent technologies) with Thermo Scientific Hypercarb, Porous Graphitic Carbon (PGC) (3 × 50 mm, 3 μm) column. Two microliters were injected from each sample, with separation by 1% formic acid in Milli-Q water (mobile phase A) and 1% formic acid in methanol (mobile phase B). The gradient started at 8% mobile phase B, increasing to 70% over 5.5 min and returned to 8% mobile phase B for re-equilibration over the last 9.5 min. The column temperature was maintained at 60 °C and the flow rate at 0.3 mL min^-1. […] SMCSO was quantified with the Agilent system described above. […] Snap-frozen tissue cores were individually weighed on a high-sensitivity balance and transferred to screw-top tubes. Two hundred microliters of cold Milli-Q water and […] of autoclaved, acid-washed 710 to 1180 μm glass beads (Sigma) were added to each tube. […]

[2] = read-out: Plasma C max; following a portion of cruciferous vegetables, transient; cited from earlier work
[3] = SMCSO in tissue cores from radical prostatectomies of men not in a dietary study; assay type: in vivo, human; details: two cores from each of four glands
From the text: To further explore the presence of un‐metabolized SMCSO in the prostate gland of men who had not been within a dietary study, tissue samples were obtained from patients who had endoscopic extraperitoneal radical prostatectomies. Access to tissue and subsequent analyses were undertaken under ethical approval granted from the Faculty of Medicine and Health Sciences Research Ethics Committee of the University of East Anglia (FMHS 20122014–37). The prostate gland was removed from the abdominal cavity immediately after resection and rapidly biopsied after extraction to avoid ischemic artifacts using a standard core biopsy instrument, as previously described.23 The extracted whole prostatectomy specimen was placed on a surgical table, the apex and base of the gland were identified, and the prostate cut transversely (axial section) half way along the gland. With the use of the midline and the urethra as guides, biopsies were taken from the peripheral zones avoiding obvious tumor sites where feasible. Two cores were taken from each of four glands for analyses. The tissue was snap frozen and analyzed for the presence of SMCSO as described above.

[4] = Feeding of 35S-labeled SMCSO to human volunteers, recovery of label in urine (Waring et al.); assay type: in vivo
From the text: Previously, there has been only a single study of the metabolism of SMCSO in humans. Waring and colleagues describe the feeding of ^35S‐labeled SMCSO to human volunteers, and the recovery of 96% of the label in urine after 14 days, of which 40% was inorganic sulfate, indicating almost complete absorption of SMCSO (and/or its colonic microbiological derivatives).18 How SMCSO was metabolized is unknown, but it is likely that it was due to initial cysteine‐S‐conjugate β lyase activity by gut microbiome, as opposed to mammalian enzyme activity.

[5] = Effect of heating the soup to boiling (microwave or conduction) on metabolite amount; assay type: physicochemical; details: heating to boiling by microwave or conduction vs unheated control
From the text: One portion of soup contained 280 ± 8.8 µmoles of glucoraphanin and 1513 ± 36.8 µmoles of SMCSO. The soup was provided frozen and heated up prior to consumption using a standard procedure. Heating either by microwave or conduction had no effect on SMCSO or glucoraphanin concentration (Figure 3).
Figure 3 The effect of heating soup to boiling on amount of a) glucoraphanin and b) SMCSO compared to unheated control by microwave or conduction heating. Columns are means of two independent samples.

[6] = both, human, in vivo
Experimental: (§1) SMCSO was quantified with the Agilent system described above. Samples were injected at 2 µL eluted at a flow rate of 0.3 mL min^–1 on an Agilent SB‐AQ 1.8 µM (100 × 21 mm) C18 column. Separation was carried out using 10 mM ammonium acetate + 0.05% hetafluorobutyric acid in Milli‐Q water (mobile phase A) and 10 mM ammonium acetate + 0.05% hetafluorobutyric acid in 90% methanol (mobile phase B). The gradient started at 2% mobile phase B, increasing over 2 min to 5% B and returning to 2% mobile phase B for re‐equilibration over the last 2 min. The column was set at 20 °C due to the instability of SMCSO at high temperatures. The LC eluent flow was sprayed into the mass spectrometer interface without splitting. SMCSO ion was monitored by MS in MRM mode (m/z = 87.9) in positive polarity with ESI. The source parameters were: gas temperature 200 °C, gas flow 16 L min^–1, sheath gas temperature 300 °C with a sheath gas flow of 11 L min^–1, a nebulizer pressure of 50 psi, and capillary voltage 3500 V. Quantification was performed by peak area against the matrix‐matched standard curve, and identification by retention time and product ions.
(§2) To quantify the amount of SMCSO in plasma and urine from a single portion of soup, samples were analyzed from a previously described acute intervention study (NCT02300324).24 In this study, ten volunteers consumed a single portion of the identical soup to that used in the SAP study as described above as part of a three‐phase cross‐over study. Briefly, men and woman aged 18–65 years with a BMI between 19.5 and 35 kg m^–2 were enrolled into a dietary intervention trial undertaken at the Human Nutrition Unit of the Quadram Institute Bioscience Subjects were recruited on the basis of fasted (≥8 h) screening blood/urine samples and a completed health questionnaire. The study involved a 48‐h pre‐intervention diet restriction, a study day involving a 9‐h stay at the HNU and a sample collection the following morning (24 h post soup consumption) followed by a washout period of 2 weeks. […]

[7] = parameters: method as in PMID 14768973; details: cited from earlier work
clinical = details: both, human, in vivo
Experimental: as §1, §2

[8] = parameters: method as in Sivapalan et al.19; details: human, ref Sivapalan et al.19, cited from earlier work
[9] = human, cited from earlier work
[10] = human prostate biopsy cores, LC–MS/MS, both study arms

SMILES: O=S(=O)(O)O [sulfate]
Sulfate level in prostate tissue between the two dietary arms ([1]; human prostate biopsy cores): no significant difference

SMILES: C[S+]([O-])CCCCN=C=S (centres unmarked) [Sulforaphane, sulforaphane]
Detection in prostate tissue [1, 10]: No glucoraphanin or sulforaphane (and its thiol conjugates) was detected
Sulforaphane in urine ([1]; human, participants in both arms): detected in urine from participants in both arms of the study
Cmax [2]: < 1000 nM

Detection in prostate tissue ([1]; in vivo): present
Proportion of SMCSO absorbed from the GI tract ([4]; concluding statement): ~100%
Proportion of consumed SMCSO that is metabolized in vivo ([4]; inferred from this study together with Waring et al. 18): about 90%
Plasma concentration of SMCSO relative to that of glucoraphanin or sulforaphane [6]: about 1000 fold
concentration at 24 h (clinical): 4660 ± 1520 nM
Tmax (clinical; Plasma Tmax): 1.4 h
SMILES: C[S@+]([O-])C[C@H](N)C(=O)O [SMCSO, (+)‐S‐methyl cysteine sulfoxide]
SMCSO level in peri-prostatic adipose tissue ([1]; in vivo): higher levels than in prostate tissue but without significant difference between the two groups
SMCSO level in urine, supplement group vs control ([1]; in vivo): higher in urine in the supplement group compared to the control
Detection of SMCSO in radical prostatectomy tissue samples [3]: detected in seven of the eight tissue samples
Effect of heating on concentration in the soup [5]: no effect
Share of recovered urinary label that was inorganic sulfate ([7]; human volunteers fed 35S-labeled SMCSO, 14 days): 40%
Recovery of 35S label in urine ([7]; human volunteers fed 35S-labeled SMCSO, after 14 days): 96%
Proportion of SMCSO absorbed (as un-metabolized SMCSO or unknown derivatives) ([7]; human): 97%

SMILES: C[S@@+]([O-])CCCC/C(=N/OS(=O)(=O)O)S[C@@H]1O[C@H](CO)[C@@H](O)[C@H](O)[C@H]1O [Glucoraphanin, 4‐Methylsulphinylbutyl glucosinolate]
Detection in prostate tissue [1, 10]: No glucoraphanin or sulforaphane (and its thiol conjugates) was detected
Effect of heating on concentration in the soup [5]: no effect
Plasma C24h ([8]; 24 h after single 300 mL portion of broccoli soup): <10 nM
Plasma AUC ([8]; single 300 mL portion of broccoli soup (280 µmoles glucoraphanin)): 0.15 ± 0.08 µM·h
Cmax ([8]; single 300 mL portion of broccoli soup (280 µmoles glucoraphanin), read-out: Plasma Cmax): 30 ± 10 nM
Plasma Tmax ([8]; single 300 mL portion of broccoli soup): 2.23 ± 0.09 h
Urine: percentage excreted after 24 h ([9]; percentage of consumed glucoraphanin excreted intact, ref Sivapalan et al.19): 0.51 ± 0.24%
Urine: total excreted in 24 h ([9]; single 300 mL portion of broccoli soup (280 µmoles glucoraphanin), ref Sivapalan et al.19): 1.44 ± 0.66 µmol
Conversion of glucoraphanin to sulforaphane ([9]; value assumed for the dose-equivalent calculation): 8%
